This is an account of results in PubChem BioAssay (NCI).

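Interpolation was linear, between the two tested concentrations surrounding the appropriate level; five concentrations were tested over 48 hours in 96-well plates. TGI is the concentration that stops growth completely.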

Test systems include 786-0 renal; A549 NSCLC; ACHN renal; HCC-2998 colon; HOP-62 NSCLC; K-562 leukemia; OVCAR-3 ovarian; OVCAR-8 ovarian; SK-MEL-28 melanoma; SN12C renal; SNB-75 CNS; RPMI-8226 leukemia; RXF 393 renal.
Common to all, as to test: NCI anticancer screen, dose series, 48 h

Take `Cc1ncc([N+](=O)[O-])n1CCNC(=O)Cn1c([N+](=O)[O-])cnc1C`: the TGI in the test on 786-0 renal, in the test with A549 NSCLC, in the test with ACHN renal, in the test on HCC-2998 colon, in the test on HOP-62 NSCLC and in the test with K-562 leukemia was more than 100 µM in each case. Besides, the TGI in the test with OVCAR-3 ovarian, in the test on OVCAR-8 ovarian, in the test on SK-MEL-28 melanoma, in the test with SN12C renal and in the test with SNB-75 CNS was more than 100 µM in each case.

Regarding `CC1(C)O[C@@H](CBr)C[C@H](C[C@H]2C[C@@H](O)C[C@@H](CCOCc3ccccc3)O2)O1`, the TGI with 786-0 renal is 39.8 µM; with A549 NSCLC, 75.7 µM; in the test on ACHN renal it was 57.4 µM; with HCC-2998 colon, 53.7 µM; with HOP-62 NSCLC, 42.8 µM; with K-562 leukemia it was more than 100 µM. Also, the TGI in the test with OVCAR-3 ovarian is 39.8 µM; in the test on OVCAR-8 ovarian, 47.7 µM; in the test with RPMI-8226 leukemia it was 97 µM; in the test on SK-MEL-28 melanoma it was 69.2 µM; with SN12C renal, 79.4 µM; with SNB-75 CNS, 36.9 µM.

With `CC(C)(C)OC(=O)N(CCCCNCc1ccc2ccccc2c1)CCCNCc1ccc2ccccc2c1`, the TGI in the test with 786-0 renal was 2.8 µM; with A549 NSCLC it was 3.82 µM; in the test with ACHN renal, 3.39 µM; in the test with HCC-2998 colon, 0.549 µM; in the test on HOP-62 NSCLC, 3.87 µM; in the test on K-562 leukemia, 1.11 µM. The TGI in the test on OVCAR-8 ovarian came out at 3.08 µM; in the test on SK-MEL-28 melanoma it was 3.39 µM; in the test with SN12C renal it was 3.32 µM; with SNB-75 CNS, 2.99 µM.

For the compound `Cc1cccc2c(=O)c3cccc([C@@H](C)C(=O)O)c3oc12`, the TGI in the test with 786-0 renal, in the test with A549 NSCLC, in the test with ACHN renal, with HCC-2998 colon, in the test on HOP-62 NSCLC and in the test with K-562 leukemia was more than 100 µM in each case. Also, the TGI in the test on OVCAR-3 ovarian, in the test on OVCAR-8 ovarian, with RPMI-8226 leukemia, with SK-MEL-28 melanoma and in the test with SN12C renal was more than 100 µM in each case.

Turning to `COc1cc2c(cc1OC)C(=O)N(NC1=NCCN1)C2=O`, the TGI in the test with 786-0 renal, with A549 NSCLC, with ACHN renal, in the test with HCC-2998 colon, with HOP-62 NSCLC and in the test with K-562 leukemia was more than 100 µM throughout. Also, the TGI with OVCAR-3 ovarian, in the test with OVCAR-8 ovarian, with RPMI-8226 leukemia, in the test on RXF 393 renal, with SK-MEL-28 melanoma and with SN12C renal was more than 100 µM in each case.

On to `Cc1ccc(S(=O)(=O)c2c(N)n(CCN(C)C)c3nc4ccccc4nc23)cc1`, for which the TGI in the test with 786-0 renal, in the test on A549 NSCLC, in the test on ACHN renal, in the test on HCC-2998 colon, in the test with K-562 leukemia and in the test with OVCAR-3 ovarian was more than 100 µM each time. In addition, the TGI in the test on OVCAR-8 ovarian, with RPMI-8226 leukemia, in the test on SK-MEL-28 melanoma, in the test with SN12C renal and with SNB-75 CNS was more than 100 µM throughout.

Take `CCCC[C@H]1CCN2C[C@@H](O)[C@@H](O)[C@H]2[C@@H]1O`: the TGI in the test on 786-0 renal, in the test on A549 NSCLC, with ACHN renal, with HCC-2998 colon, with K-562 leukemia and in the test with OVCAR-3 ovarian was more than 100 µM each time. Moreover, the TGI in the test with OVCAR-8 ovarian, with RPMI-8226 leukemia, in the test with SK-MEL-28 melanoma, with SN12C renal and in the test on SNB-75 CNS was more than 100 µM throughout.

Turning to `CC(=O)O[C@@H](C1C[C@@H](C)[C@H]2[C@@](O)(O1)[C@H](O)[C@@]1(C)C3=CC[C@H]4C(C)(C)[C@@H](OC5OCC(O)C(O)C5O)CC[C@@]45C[C@@]35CC[C@]21C)C(C)(C)O` (some centres undefined), the TGI is 63.6 µM in the test with 786-0 renal; more than 100 µM in the test with A549 NSCLC; 47.2 µM in the test with ACHN renal; 27.7 µM in the test with HCC-2998 colon; 70.7 µM with HOP-62 NSCLC; more than 100 µM in the test on K-562 leukemia. In addition, the TGI is 41.9 µM with OVCAR-3 ovarian; more than 100 µM in the test on OVCAR-8 ovarian; 59.5 µM in the test on RPMI-8226 leukemia; 36.9 µM in the test with RXF 393 renal; 57 µM in the test on SK-MEL-28 melanoma; 54.8 µM with SN12C renal.

With `O=c1[nH]n(Cc2ccccc2Cl)c2ccccc12`, the TGI in the test on 786-0 renal, in the test on A549 NSCLC, in the test on ACHN renal, with HCC-2998 colon, with HOP-62 NSCLC and in the test on K-562 leukemia was more than 100 µM in each case. Also, the TGI in the test on OVCAR-3 ovarian, in the test on OVCAR-8 ovarian, with RPMI-8226 leukemia, in the test with SK-MEL-28 melanoma, in the test with SN12C renal and in the test with SNB-75 CNS was more than 100 µM in each case.

In the case of `O=[N+]([O-])c1cccc(C2=NOC3C4CCC(C4)C23)c1` (centres undefined), the TGI in the test on 786-0 renal, with A549 NSCLC, with ACHN renal, in the test with HCC-2998 colon, in the test on HOP-62 NSCLC and in the test on OVCAR-3 ovarian was more than 100 µM throughout. Also, the TGI in the test with OVCAR-8 ovarian, in the test with RPMI-8226 leukemia, with SK-MEL-28 melanoma, with SN12C renal and in the test with SNB-75 CNS was more than 100 µM each time.

Turning to `COc1ccc(CCc2nccn2C)cc1OC`, the TGI in the test on 786-0 renal, with A549 NSCLC, in the test on ACHN renal, in the test on HCC-2998 colon, in the test on HOP-62 NSCLC and in the test with K-562 leukemia was more than 100 µM each time. The TGI with OVCAR-3 ovarian, with OVCAR-8 ovarian, in the test with RPMI-8226 leukemia, with SK-MEL-28 melanoma and in the test with SN12C renal was more than 100 µM each time.

With `COc1ccccc1CNC(=O)[C@H](Cc1ccc(O)cn1)NC(C)=O`, the TGI in the test on 786-0 renal, in the test on A549 NSCLC, with ACHN renal, in the test on HCC-2998 colon, with HOP-62 NSCLC and in the test on K-562 leukemia was more than 100 µM each time. Further, the TGI in the test on OVCAR-3 ovarian, in the test with RPMI-8226 leukemia, in the test on RXF 393 renal, with SK-MEL-28 melanoma and in the test on SN12C renal was more than 100 µM each time.

For the compound `CC(C)(C)C1CCC2c3c([nH]c4ccccc34)C3C(=O)N(c4ccc5c(c4)C(=O)c4ccccc4C5=O)C(=O)C3C2C1` (centres undefined), the TGI with 786-0 renal, with A549 NSCLC, in the test on ACHN renal, in the test on HCC-2998 colon, with HOP-62 NSCLC and in the test on K-562 leukemia was more than 100 µM in each case. The TGI in the test with OVCAR-3 ovarian, with OVCAR-8 ovarian, in the test with RPMI-8226 leukemia, with RXF 393 renal, in the test on SK-MEL-28 melanoma and with SN12C renal was more than 100 µM in each case.

In the case of `Cc1ccccc1N=NC(C(=O)c1ccccc1)C(=O)c1ccccc1`, the TGI was 78.3 µM in the test with 786-0 renal; more than 100 µM in the test on A549 NSCLC; more than 100 µM with ACHN renal; more than 100 µM in the test with HCC-2998 colon; 70.6 µM with HOP-62 NSCLC; more than 100 µM with K-562 leukemia. The TGI was more than 100 µM in the test on OVCAR-3 ovarian; more than 100 µM in the test with OVCAR-8 ovarian; 60.9 µM with RPMI-8226 leukemia; more than 100 µM in the test with SK-MEL-28 melanoma; 58 µM in the test with SN12C renal; 70.5 µM with SNB-75 CNS.

As to `Cc1cc(Cl)ccc1C1OC(=O)c2c1ccc1ccccc21` (centres undefined), the TGI with 786-0 renal, in the test with A549 NSCLC, in the test on ACHN renal, in the test on HCC-2998 colon, with HOP-62 NSCLC and in the test on K-562 leukemia was more than 100 µM throughout. Also, the TGI in the test on OVCAR-3 ovarian, with OVCAR-8 ovarian, in the test on RPMI-8226 leukemia, in the test with SK-MEL-28 melanoma, in the test with SN12C renal and in the test with SNB-75 CNS was more than 100 µM in each case.

With `O=C(/C=C(\O)c1ccccc1)c1cc(-c2ccccc2)n(-c2ccccc2)n1`, the TGI with 786-0 renal was 67.8 µM; in the test on A549 NSCLC, 24.9 µM; in the test on ACHN renal it was 23.9 µM; in the test with HCC-2998 colon, more than 100 µM; in the test with HOP-62 NSCLC it was 23.9 µM; with K-562 leukemia, more than 100 µM. For the same compound, the TGI is more than 100 µM with OVCAR-3 ovarian; 15.3 µM in the test with OVCAR-8 ovarian; 6.1 µM in the test on RPMI-8226 leukemia; more than 100 µM with RXF 393 renal; 39.9 µM with SN12C renal.

In the case of `COc1ccc2c(c1)CCC(OS(=O)(=O)CC13CCC(CC1=O)C3(C)C)C2=O` (centres undefined), the TGI was 40.4 µM in the test with 786-0 renal; 78 µM in the test on A549 NSCLC; more than 100 µM with ACHN renal; 50.9 µM with HCC-2998 colon; 70.8 µM with HOP-62 NSCLC; more than 100 µM in the test with K-562 leukemia. Besides, the TGI with OVCAR-3 ovarian is 66.9 µM; with OVCAR-8 ovarian, 38.6 µM; in the test on RPMI-8226 leukemia, 57.2 µM; in the test with SK-MEL-28 melanoma, more than 100 µM; in the test with SN12C renal, 35.2 µM; in the test on SNB-75 CNS, more than 100 µM.

Consider `CCc1n[nH]c(=O)n1CCO`, for which the TGI in the test with 786-0 renal, in the test with A549 NSCLC, with ACHN renal, in the test with HCC-2998 colon, in the test on K-562 leukemia and with OVCAR-3 ovarian was more than 100 µM in each case. The TGI in the test with OVCAR-8 ovarian, in the test with RPMI-8226 leukemia, in the test on SK-MEL-28 melanoma and in the test on SN12C renal was more than 100 µM in each case.
